Data from patent US20090054504A1 (KNOPP NEUROSCIENCES, INC., priority 2007, published 2009).
Where two headings read alike, the source gives them in different places.

Tests used:
[1] = tested on: rodents; settings: single oral dose; cited from earlier work
[2] = tested on: Parkinson's disease patients; settings: human trials; cited from earlier work
[3] = tested on: human subjects; settings: cited from earlier work; for MRTD (maximum recommended therapeutic dose): FDA MRTD database
[4] = biological target: human cloned dopamine receptors (D3) (Homo sapiens, UniProt P35462); experiment: biochemical
Protocol: (§1) These concentrations were tested in cell lines expressing select human cloned dopamine receptors (D2S, D3).

[5] = in vivo; settings: male, dog
Protocol: (§2) Doses were administered orally by gavage and clinical observations were taken continuously following dosing: hourly for the first four hours, and then twice daily cage-side observations for the duration of the inter-dose or post-dose interval. Observations were made of clinical signs, mortality, injury and availability of food and water. Animals were fasted for 24 hr prior to dosing. Dogs in each group were exposed to only one drug, or the combination; each dose was administered only once, with a subsequent dose administered after a recovery period of 4 days.

[6] = biological target: D1 dopamine receptor (Homo sapiens, UniProt P21728); settings: literature and own data
Protocol: as §1

[7] = biological target: D5 dopamine receptor (Homo sapiens, UniProt P21918); settings: literature and own data
Protocol: as §1

[8] = tested on: non-naïve male beagle dogs
Protocol: as §2

[9] = tested on: dogs; settings: single oral dose; cited from earlier work
[10] = tested on: monkeys treated with MPTP; settings: from MPTP monkey dose
[11] = tested on: monkeys treated with MPTP; settings: motor deficits and Parkinson-like symptoms; cited from earlier work
[12] = tested on: restless legs syndrome patients; settings: human trials; cited from earlier work
[13] = male, beagle, dog, in vivo, 1 study day
[14] = male, beagle, dog, in vivo, 8 study day

Sequence of D1 dopamine receptor (P21728 whole entry): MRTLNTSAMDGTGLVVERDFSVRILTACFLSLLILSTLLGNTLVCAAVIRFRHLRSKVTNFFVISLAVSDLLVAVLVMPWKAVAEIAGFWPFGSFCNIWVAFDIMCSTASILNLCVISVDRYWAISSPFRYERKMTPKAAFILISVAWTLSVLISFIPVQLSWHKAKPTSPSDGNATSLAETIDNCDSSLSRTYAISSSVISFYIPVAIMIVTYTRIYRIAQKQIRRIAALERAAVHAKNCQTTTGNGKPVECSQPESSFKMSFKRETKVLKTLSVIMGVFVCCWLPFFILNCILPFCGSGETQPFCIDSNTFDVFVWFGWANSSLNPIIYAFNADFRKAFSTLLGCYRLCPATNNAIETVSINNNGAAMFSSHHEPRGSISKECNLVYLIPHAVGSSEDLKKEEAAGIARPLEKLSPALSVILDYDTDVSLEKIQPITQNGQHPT
Sequence of D5 dopamine receptor (P21918 whole entry): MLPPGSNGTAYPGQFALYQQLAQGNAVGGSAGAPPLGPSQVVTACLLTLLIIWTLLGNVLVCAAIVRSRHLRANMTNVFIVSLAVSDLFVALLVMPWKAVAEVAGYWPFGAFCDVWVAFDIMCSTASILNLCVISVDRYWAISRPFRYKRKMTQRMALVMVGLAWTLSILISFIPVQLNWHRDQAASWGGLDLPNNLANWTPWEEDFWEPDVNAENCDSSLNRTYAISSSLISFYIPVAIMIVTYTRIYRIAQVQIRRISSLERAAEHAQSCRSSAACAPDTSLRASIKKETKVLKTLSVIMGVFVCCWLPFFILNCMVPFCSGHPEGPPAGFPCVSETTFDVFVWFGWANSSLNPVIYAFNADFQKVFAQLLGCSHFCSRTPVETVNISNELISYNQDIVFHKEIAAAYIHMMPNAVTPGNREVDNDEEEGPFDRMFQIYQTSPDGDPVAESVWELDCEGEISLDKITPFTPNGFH
Sequence of human cloned dopamine receptors (D3) (P35462 whole entry): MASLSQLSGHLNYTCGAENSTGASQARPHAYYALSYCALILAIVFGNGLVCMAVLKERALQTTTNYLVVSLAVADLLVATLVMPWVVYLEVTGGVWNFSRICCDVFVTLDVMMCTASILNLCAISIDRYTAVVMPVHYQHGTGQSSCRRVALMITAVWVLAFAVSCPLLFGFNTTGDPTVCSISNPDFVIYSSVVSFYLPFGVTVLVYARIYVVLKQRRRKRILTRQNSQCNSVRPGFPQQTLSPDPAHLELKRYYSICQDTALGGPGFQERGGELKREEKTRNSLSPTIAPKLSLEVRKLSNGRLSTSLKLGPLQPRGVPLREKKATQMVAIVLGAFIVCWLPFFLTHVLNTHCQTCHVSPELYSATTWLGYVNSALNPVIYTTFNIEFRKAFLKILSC

## CCCN[C@H]1CCc2nc(N)sc2C1 [PPX, (6S)-4,5,6,7-tetrahydro-N6-propyl-2,6-benzothiazole-diamine]
[1]
  immediate release doses at which deaths occurred (and above): 70000 to 105000 µg/kg
[2]
  lowest effective oral immediate release dose versus placebo, Parkinson's disease: 1.1 mg/day
[3]; for a 70 lb. person
  MRTD (maximum recommended therapeutic dose): 7.0 mg/day
[3]
  MRTD (maximum recommended therapeutic dose): 0.11 mg/kg/day
[3]; human subjects
  immediate release dose shown to cause somnolence: 1.5 mg
[3]; naïve patient
  starting daily dose not tolerated: greater than 0.20 mg
[4]
  IC50: 0.94 nM
[5]
  NOAEL at 4 days: 0.7 µg/kg
[5]; po
  MTD at 4 days: 7.5 µg/kg
  NOAEL at 4 days: 1.25 µg/kg
[6]
  interaction with D1 dopamine receptors: no significant interaction
[7]
  interaction with D5 dopamine receptors: no significant interaction
[8]; IR dose, from dog data
  human dose equivalent to the dog NOAEL, for a 70 kg individual: 0.05 mg
[8]; from dog data
  human equivalence dose of the dog MTD, for a 70 kg human subject: 0.30 mg
[8]; male, beagle, dog, in vivo
  Behavior/Activity: Activity decreased: 3/4
  Excretion: Feces soft: 0/4
  Excretion: Feces watery: 0/4
  External Appearance: Lacrimation: 0/4
  Eye/Ocular: Pupils dilated: 0/4
  Pelage/Skin: Skin warm to touch: 0/4
[8]; [13]
  Behavior/Activity: Convulsions - clonic: 0/4
  Behavior/Activity: Salivation: 0/4
  Behavior/Activity: Tremors: 1/4
  Excretion: Emesis: 3/4
  Excretion: Feces hard: 1/4
  Excretion: Feces mucoid: 0/4
[8]; [14]
  Behavior/Activity: Activity decreased: 0/4
  Behavior/Activity: Tremors: 0/4
  Excretion: Emesis: 0/4
  Excretion: Feces hard: 0/4
[9]
  dose at which vomiting occurred (and above): ≥ 0.7 µg/kg
[10]
  equivalent human immediate release dose: 17 µg/kg
  equivalent human immediate release dose for a 70 kg individual: 1.2 mg
[11]
  lowest effective oral immediate release dose: 53 µg/kg
[12]
  lowest effective dose versus placebo, restless legs syndrome: 0.25 mg/day
